Assay results taken from US9023847B2, “Azaheterocyclic compounds” (Merck Patent GmbH, priority 2009, dated 2015).

Biological target: T1, P70S6K (T412E mutant, Millipore) (Homo sapiens, UniProt P23443, T412E)
T1 construct: purchased Millipore
Assay: p70S6K enzyme assay
Type: biochemical
Settings: Table 1; 3 nM P70S6K, 24 μM ATP, 90 min at 25° C.; read-out: p70S6K inhibition (IC50)
Procedure, shortened: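 T412E-mutant P70S6K (3 nM) with 24 μM ATP and 1 μM FITC-AHA-AKRRRLSSLRA-OH S6-derived peptide in 100 mM Hepes pH 7.5, 5 mM MgCl2, 1 mM DTT, 0.015% Brij; 90 min at 25° C, EDTA stop. Phosphorylated product and substrate peptide separated and quantified by microfluidic capillary electrophoresis (Caliper LabChip 3000).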

T1 sequence (P23443 whole entry T412E): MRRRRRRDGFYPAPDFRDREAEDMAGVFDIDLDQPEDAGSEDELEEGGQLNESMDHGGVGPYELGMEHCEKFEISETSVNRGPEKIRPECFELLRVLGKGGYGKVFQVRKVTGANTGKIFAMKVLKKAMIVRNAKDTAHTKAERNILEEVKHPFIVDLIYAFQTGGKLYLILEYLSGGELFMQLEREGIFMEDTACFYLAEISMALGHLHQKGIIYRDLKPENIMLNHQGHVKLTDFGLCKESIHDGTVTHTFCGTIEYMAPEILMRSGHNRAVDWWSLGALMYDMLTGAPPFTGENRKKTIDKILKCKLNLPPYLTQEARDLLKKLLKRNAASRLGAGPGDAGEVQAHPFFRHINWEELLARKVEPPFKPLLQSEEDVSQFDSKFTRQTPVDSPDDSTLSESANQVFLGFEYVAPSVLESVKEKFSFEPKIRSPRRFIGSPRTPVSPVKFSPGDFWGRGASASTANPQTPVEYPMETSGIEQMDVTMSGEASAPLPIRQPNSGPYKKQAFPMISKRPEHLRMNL

Question: For `O=C(NC1CCCNC1)c1sccc1Nc1ncnc2[nH]ccc12` (centres unmarked) [Example 151, 3-(7H-Pyrrolo[2,3-d]pyrimidin-4-ylamino)-thiophene-2-carboxylic acid piperidin-3-ylamide], which IC50 is on record?
Answer: < 100 nM

Same assay, conditions: class symbol; 3 nM P70S6K, 24 μM ATP; read-out: IC50 (p70S6K)

Question: `N#CC(NC(=O)c1ccsc1Nc1ccnc2[nH]ccc12)c1ccccc1` (centres unmarked) [Example 116, 2-(1H-Pyrrolo[2,3-b]pyridin-4-ylamino)-thiophene-3-carboxylic acid (cyano-phenyl-methyl)-amide] was tested. Which IC50 did it give?
Answer: < 100 nM

Question: Which IC50 does the source give for `CC(=O)N(CCNC(=O)c1sccc1Nc1ccnc2[nH]ccc12)Cc1ccccc1` [Example 45, 3-(1H-Pyrrolo[2,3-b]pyridin-4-ylamino)-thiophene-2-carboxylic acid [2-(acetyl-benzyl-amino)-ethyl]-amide] here?
Answer: 100 to 1000 nM

Question: `O=C(NCCC1=CCCCC1)c1sccc1Nc1ccnc2[nH]ccc12` [Example 13, 3-(1H-Pyrrolo[2,3-b]pyridin-4-ylamino)-thiophene-2-carboxylic acid (2-cyclohex-1-enyl-ethyl)-amide] was tested. Which IC50 did it give?
Answer: < 100 nM

Question: For `O=C(NCCc1ccc(Br)cc1)c1sccc1Nc1ccnc2[nH]ccc12` [Example 27, 3-(1H-Pyrrolo[2,3-b]pyridin-4-ylamino)-thiophene-2-carboxylic acid [2-(4-bromo-phenyl)-ethyl]-amide], which IC50 is on record?
Answer: < 100 nM

Question: How did the IC50 turn out when `O=C(N[C@H](CO)c1ccccc1)c1ccsc1Nc1ccnc2[nH]ccc12` [Example 75, 2-(1H-Pyrrolo[2,3-b]pyridin-4-ylamino)-thiophene-3-carboxylic acid ((S)-2-hydroxy-1-phenyl-ethyl)-amide] was run?
Answer: < 100 nM

Question: How did the IC50 turn out when `O=C(NCCc1ccc(F)cc1)c1sccc1Nc1ccnc2[nH]ccc12` [Example 23, 3-(1H-Pyrrolo[2,3-b]pyridin-4-ylamino)-thiophene-2-carboxylic acid [2-(4-fluoro-phenyl)-ethyl]-amide] was run?
Answer: < 100 nM

Question: `Nc1cccc(CNC(=O)c2ccsc2Nc2ccnc3[nH]ccc23)c1` [Example 111, 2-(1H-Pyrrolo[2,3-b]pyridin-4-ylamino)-thiophene-3-carboxylic acid 3-amino-benzylamide] was tested. Which IC50 did it give?
Answer: < 100 nM

Question: Which IC50 does the source give for `O=C(Nc1ccc(F)cc1)c1sccc1Nc1ccnc2[nH]ccc12` [Example 37, 3-(1H-Pyrrolo[2,3-b]pyridin-4-ylamino)-thiophene-2-carboxylic acid (4-fluoro-phenyl)-amide] here?
Answer: < 100 nM

Question: Which IC50 does the source give for `NC[C@@H](NC(=O)c1ccsc1Nc1ccnc2[nH]ccc12)c1ccccc1` [Example 140, 2-(1H-Pyrrolo[2,3-b]pyridin-4-ylamino)-thiophene-3-carboxylic acid ((S)-2-amino-1-phenyl-ethyl)-amide] here?
Answer: < 100 nM

Question: `NCC(NC(=O)c1ccsc1Nc1ccnc2[nH]ccc12)c1cccc(Cl)c1` (centres unmarked) [Example 130, 2-(1H-Pyrrolo[2,3-b]pyridin-4-ylamino)-thiophene-3-carboxylic acid [2-amino-1-(3-chloro-phenyl)-ethyl]-amide] was tested. Which IC50 did it give?
Answer: < 100 nM

Question: How did the IC50 turn out when `O=C(NCc1cn(Cc2ccccc2)nn1)c1sccc1Nc1ccnc2[nH]ccc12` [Example 101, 3-(1H-Pyrrolo[2,3-b]pyridin-4-ylamino)-thiophene-2-carboxylic acid (1-benzyl-1H-[1,2,3]triazol-4-ylmethyl)-amide] was run?
Answer: 100 to 1000 nM

Question: `CC(C)(C)OC(=O)N1CCC[C@@H]1CNC(=O)c1sccc1Nc1ccnc2[nH]ccc12` [Example 92, (R)-2-({[3-(1H-Pyrrolo[2,3-b]pyridin-4-ylamino)-thiophene-2-carbonyl]-amino}methyl)pyrrolidine-1-carboxylic acid tert-butyl ester] was tested. Which IC50 did it give?
Answer: 100 to 1000 nM

Question: With `O=C(NCC(O)c1ccccc1)c1sccc1Nc1ccnc2[nH]ccc12` (centres unmarked) [Example 99, 3-(1H-Pyrrolo[2,3-b]pyridin-4-ylamino)-thiophene-2-carboxylic acid (2-hydroxy-2-phenyl-ethyl)-amide] as the compound, how does the IC50 read?
Answer: < 100 nM
